Patent publication US20240174690A1, “ANNULATED 2-AMINO-3-CYANO THIOPHENES AND DERIVATIVES FOR THE TREATMENT OF CANCER” (BOEHRINGER INGELHEIM INTERNATIONAL GMBH, priority 2021, published 2024)
In brackets after ≈: the same amount, converted by molar mass. Like-named read-outs stand apart in the source and are kept apart here.

Columns and labels:
[1] = tested on: NCI-H2122 cells; assay: NCI-H2122 CTG proliferation assay (120 h) (NSCLC, G12C); type: cell-based; conditions: Homo sapiens
Description: NCI-H2122 CTG Proliferation Assay (120 h) (NSCLC, G12C)
The CTG assay is designed to measure quantitatively the proliferation of NCI-H2122 cells (ATCC CRL-5985), using the CellTiter Glow Assay Kit (Promega G7571). Cells are grown in RPMI medium (ATCC) supplemented with Fetal Calf Serum (Life Technologies, Gibco BRL, Cat. No. 10270-106). On “day 0” 200 NCI-H2122 cells are seeded in 60 μL RPMI ATCC+10% FCS+Penstrep in a black 384-well plate, flat and clear bottom (Greiner, PNr. 781091). Cells are then incubated in the plates at 37° C. in a CO2 incubator overnight. On day 1, compounds (10 mM stock in DMSO) are added with the ECHO acoustic liquid handler system (Beckman Coulter), including DMSO controls. Plates are incubated for 120 h, and cell viability is measured using CellTiter-Glo luminescent cell viability reagent (Promega product code G7570). Viability (stated as percent of control) is defined as relative luminescence units RLU of each well divided by the RLU of cells in DMSO controls. IC50 values are determined from viability measurements by non-linear regression using a four parameter model.

[2] = Solubility measurement (DMSO solution method), McIlvaine buffer pH 4.5 or 6.8; type: physicochemical; conditions: aqueous buffer, kinetic from dmso stock, DMSO stock diluted to 250 μM, 24 h shaking at ambient temperature
Summary of the method: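 Filtrate concentration by LC-UV, calibrated to a known-concentration reference dissolved completely in acetonitrile/water (1:1). Samples came from 250 µM final dilutions of DMSO stock in pH 4.5 or 6.8 McIlvaine buffer, shaken 24 h at ambient temperature, then filtered.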

[3] = tested on: SAS cells; assay: SAS CTG proliferation assay (120 h) (HNSCC, wt amplified); type: cell-based
Description: SAS CTG Proliferation Assay (120 h) (HNSCC, Wt Amplified)
SAS cells (JCRB0260) are dispensed into 384-well plates, flat and clear bottom (Greiner, PNr. 781091) at a density of 300 cells per well in 60 μL DMEM:F12 (Gibco 31330-038)+10% Fetal Calf Serum (HyClone, PNr.: SH30084.03) and incubated at 37° C. in a CO2 incubator overnight. The next day, compounds (10 mM stock in DMSO) are added with the ECHO acoustic liquid handler system (Beckman Coulter), including DMSO controls. Plates are incubated for 120 h, and cell viability is measured using CellTiter-Glo luminescent cell viability reagent (Promega product code G7570). Viability (stated as percent of control) is defined as relative luminescence units RLU of each well divided by the RLU of cells in DMSO controls. IC50 values are determined from viability measurements by non-linear regression using a four-parameter model.

[4] = tested on: KRAS G12C-dependent Ba/F3 cells; assay: Ba/F3 proliferation assay, KRAS G12C; type: cell-based; conditions: Mus musculus, BaF3, 72 h, AlamarBlue
Summary of the method: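 IL-3-independent Ba/F3 lines driven by transduced KRAS G12C, G12D or G12V, with puromycin withdrawn about ten days before testing. Viability after compound treatment measured by AlamarBlue fluorescence in duplicate, and values derived by curve fitting.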

[5] = tested on: NCI-H358 cells; assay: NCI-H358 CTG proliferation assay (120 h) (NSCLC, G12C); type: cell-based, human; conditions: Homo sapiens
Summary of the method: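 IC50 values derive from four-parameter nonlinear regression of CellTiter-Glo viability (RLU relative to DMSO wells) after 120 h of exposure. Cells were plated in RPMI-1640 + 10% FCS at 2000 per well (assay 1) or 200 per well (assay 2). Untreated cells were measured at compound addition as T0.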

[6] = McIlvaine buffer pH 4.5, read-out: solubility pH 4.5
[7] = McIlvaine buffer pH 6.8, read-out: solubility pH 6.8
[8] = assay 2, CTG, read-out: H358 (assay 2) IC50
[9] = assay 1, CTG, read-out: H358 (assay 1) IC50

Structure (SMILES)	IC50 [1] [nM]	solubility at 24 h [2, 6] [µg/mL]	solubility at 24 h [2, 7] [µg/mL]	IC50 [3] [nM]	IC50 [4] [nM]	IC50 [5, 8] [nM]	IC50 [5, 9] [nM]
C[C@H](Oc1cc(N2CCCC3(COC3)C2)nc(-c2noc3c2CCC[C@@]32CCCc3sc(N)c(C#N)c32)n1)[C@@H]1CCCN1C [II-72]	2250	> 146	89 (≈ 145 µM)	206	22	9	
C[C@H](Oc1cc(-c2cnn(C)c2)nc(-c2noc3c2CCC[C@@]32CCCc3sc(N)c(C#N)c32)n1)[C@@H]1CCCN1C [II-74]	2860	57 (≈ 99.9 µM)	29 (≈ 50.8 µM)	192	50	1680	
C[C@H](Oc1cc(N2CCN(C)C2=O)nc(-c2noc3c2CCC[C@@]32CCCc3sc(N)c(C#N)c32)n1)[C@@H]1CCCN1C [II-75]	3130	> 122	91 (≈ 155 µM)	31	26	10	49
C[C@H](Oc1cc(C2CCOCC2)nc(-c2noc3c2CCC[C@@]32CCCc3sc(N)c(C#N)c32)n1)[C@@H]1CCCN1C [II-76]	1300	> 122	104 (≈ 181 µM)	66	18	507	
C[C@H](Oc1cc(N2CCOC3(COC3)C2)nc(-c2noc3c2CCC[C@@]32CCCc3sc(N)c(C#N)c32)n1)[C@@H]1CCCN1C [II-77]	1780	> 143	> 134	152	14	9	51
C[C@H](Oc1cc(-c2ccncc2)nc(-c2noc3c2CCC[C@@]32CCCc3sc(N)c(C#N)c32)n1)[C@@H]1CCCN1C [II-78]	2140	41 (≈ 72.2 µM)	3 (≈ 5.28 µM)	318	37	170	
CC(=O)N1CC=C(c2cc(O[C@@H](C)[C@@H]3CCCN3C)nc(-c3noc4c3CCC[C@@]43CCCc4sc(N)c(C#N)c43)n2)CC1 [II-81]	1680	114 (≈ 186 µM)	84 (≈ 137 µM)	51	49	1200	
C[C@H](Oc1cc(-c2cncnc2)nc(-c2noc3c2CCC[C@@]32CCCc3sc(N)c(C#N)c32)n1)[C@@H]1CCCN1C [II-82]	2680	102 (≈ 179 µM)	72 (≈ 127 µM)	990	82	807	
C[C@H](Oc1cc(-c2ccn(-c3ccsc3)n2)nc(-c2noc3c2CCC[C@@]32CCCc3sc(N)c(C#N)c32)n1)[C@@H]1CCCN1C [II-84]	583	< 1	< 1	52	36	> 25000	
C[C@H](Oc1cc(-c2ccccn2)nc(-c2noc3c2CCC[C@@]32CCCc3sc(N)c(C#N)c32)n1)[C@@H]1CCCN1C [II-85]	1120	38 (≈ 66.9 µM)	3 (≈ 5.28 µM)	26	19	23	
C[C@H](Oc1cc(-c2cnn(C)n2)nc(-c2noc3c2CCC[C@@]32CCCc3sc(N)c(C#N)c32)n1)[C@@H]1CCCN1C [II-86]	2080	112 (≈ 196 µM)	60 (≈ 105 µM)	502	25	993	
C[C@H](Oc1cc(-c2ccn(-c3ccccc3)n2)nc(-c2noc3c2CCC[C@@]32CCCc3sc(N)c(C#N)c32)n1)[C@@H]1CCCN1C [II-89]	1530	2 (≈ 3.16 µM)	< 1	246	57	220	
CO[C@@H]1C[C@@H]([C@H](C)Oc2cc(-c3ccn(C)n3)nc(-c3noc4c3CCC[C@@]43CCCc4sc(N)c(C#N)c43)n2)N(C)C1 [II-91]	1090	118 (≈ 196 µM)	< 1	70	15	19	78
C[C@H](Oc1cc(-n2ccnc2Cl)nc(-c2noc3c2CCC[C@@]32CCCc3sc(N)c(C#N)c32)n1)[C@@H]1CCCN1C [II-93]	1560	97 (≈ 164 µM)	20 (≈ 33.8 µM)	366	16	872	
C[C@H](Oc1cc([C@@H]2CCOC2)nc(-c2noc3c2CCC[C@@]32CCCc3sc(N)c(C#N)c32)n1)[C@@H]1CCCN1C [II-94]	834	> 126	> 122	82	5	20	20
C[C@H](Oc1cc(C2COCCO2)nc(-c2noc3c2CCC[C@@]32CCCc3sc(N)c(C#N)c32)n1)[C@@H]1CCCN1C (stereo partly shown) [II-95]	1420	> 134	> 121	5180	30	400	
C[C@H](Oc1cc(-c2ccn(C)n2)nc(-c2noc3c2CCC[C@@]32CCCc3sc(N)c(C#N)c32)n1)[C@@H]1CCCN1C [II-96]	307	107 (≈ 187 µM)	2 (≈ 3.5 µM)	148	8	98	
C[C@H](Oc1cc(-c2cccc(CO)c2)nc(-c2noc3c2CCC[C@@]32CCCc3sc(N)c(C#N)c32)n1)[C@@H]1CCCN1C [II-97]	2020	40 (≈ 67 µM)	< 1	646	58	242	
C[C@H](Oc1cc(-c2ccn(C3CC3)n2)nc(-c2noc3c2CCC[C@@]32CCCc3sc(N)c(C#N)c32)n1)[C@@H]1CCCN1C [II-98]	1020	83 (≈ 139 µM)	< 1	30	23	242	
C[C@H](Oc1cc(N2CCC(C#N)C2)nc(-c2noc3c2CCC[C@@]32CCCc3sc(N)c(C#N)c32)n1)[C@@H]1CCCN1C (stereo partly shown) [II-99]	1160	115 (≈ 197 µM)	84 (≈ 144 µM)	88	28	1340	
C[C@H](Oc1cc(-c2ccc(N)nc2)nc(-c2noc3c2CCC[C@@]32CCCc3sc(N)c(C#N)c32)n1)[C@@H]1CCCN1C [II-101]	1520	88 (≈ 151 µM)	2 (≈ 3.43 µM)	130	51	195	
C[C@H](Oc1cc(-n2cncc3ccnc2-3)nc(-c2noc3c2CCC[C@@]32CCCc3sc(N)c(C#N)c32)n1)[C@@H]1CCCN1C [II-105]	847	3 (≈ 4.94 µM)	< 1	55	12	46	
Cc1cn(-c2cc(O[C@@H](C)[C@@H]3CCCN3C)nc(-c3noc4c3CCC[C@@]43CCCc4sc(N)c(C#N)c43)n2)nn1 [II-106]	2860	107 (≈ 187 µM)	13 (≈ 22.7 µM)	96	31	2250	
C[C@H](Oc1cc(-c2ccn(C3COC3)n2)nc(-c2noc3c2CCC[C@@]32CCCc3sc(N)c(C#N)c32)n1)[C@@H]1CCCN1C [II-109]	441	117 (≈ 191 µM)	61 (≈ 99.5 µM)	20	13	78	
C[C@H](Oc1cc(-n2ccc(Br)n2)nc(-c2noc3c2CCC[C@@]32CCCc3sc(N)c(C#N)c32)n1)[C@@H]1CCCN1C [II-110]	953	3 (≈ 4.72 µM)	< 1	68	14	217	
